Measured values from patent publication US10646488B2 (Araxes Pharma LLC, priority 2016, dated 2020).

Target: T1, KRAS G12C 1-169, his-tagged protein, GDP-loaded (Homo sapiens, UniProt P01116, G12C)
T1 construct: KRAS G12C 1-169, his-tagged protein, GDP-loaded
Assay: Covalent binding (% modification) to KRAS G12C by mass spectrometry; note: test concentration or dose not given here

[1] = covalent binding to KRAS G12C after a three minute incubation period
[2] = covalent binding to KRAS G12C after a ten minute incubation period

## C=CC(=O)N1C[C@H](C)N(c2nc(N3CC(N(C)C)C3)nc3c(F)c(-c4c(O)cccc4F)c(C(F)(F)F)cc23)C[C@H]1C [Compound 206, 1-((2R,5S)-4-(2-(3-(dimethylamino)azetidin-1-yl)-8-fluoro-7-(2-fluoro-6-hydroxyphenyl)-6-(trifluoromethyl)quinazolin-4-yl)-2,5-dimethyl-piperazin-1-yl) prop-2-en-1-one]
[1]
  Binding %: +++ (+++ indicates binding activity greater than 90%)

## C=CC(=O)N1C[C@H](C)N(c2nc(OCCN3CC(F)(F)C3)nc3c(F)c(-c4c(O)cccc4F)c(Cl)cc23)C[C@H]1C [Compound 38, 1-((2R,5 S)-4-(6-Chloro-2-(2-(3,3-Difluoroazetidin-1-Yl)Ethoxy)-8-Fluoro-7-(2-Fluoro-6-Hydroxyphenyl)Quinazolin-4-Yl)-2,5-Dimethylpiperazin-1-Yl)Prop-2-En-1-One]
[2]
  Binding %: +++ (+++ indicates binding activity greater than 90%)

## [2H]C([2H])([2H])N(C1CN(c2nc(N3C[C@@H](C)N(C(=O)C=C)C[C@@H]3C)c3cc(Cl)c(-c4c(O)cccc4F)c(F)c3n2)C1)C([2H])([2H])[2H] (atropisomer, axis not shown) [Compound 207, 1-((2R,5S)-4-(2-(3-(bis(triduetero-methyl)amino)azetidin-1-yl)-6-chloro-8-fluoro-7-((S)-2-fluoro-6-hydroxyphenyl)quinazolin-4-yl)-2,5-dimethyl-piperazin-1-yl) prop-2-en-1-one]
[1]
  Binding %: +++ (+++ indicates binding activity greater than 90%)

## C=CC(=O)N1C[C@H](C)N(c2nc(OCCN3CCC(F)(F)C3)nc3c(F)c(-c4c(O)cccc4F)c(Cl)cc23)C[C@H]1C [Compound 203, 1-((2R,5S)-4-(6-chloro-2-(2-(3,3-difluoropyrrolidin-1-yl)ethoxy)-8-fluoro-7-(2-fluoro-6-hydroxyphenyl)quinazolin-4-yl)-2,5-dimethyl-piperazin-1-yl) prop-2-en-1-one]
[1]
  Binding %: +++ (+++ indicates binding activity greater than 90%)

## CC(C)/C=C(\C#N)C(=O)N1C[C@H](C)N(c2nc(N3CC(N(C)C)C3)nc3c(F)c(-c4c(O)cccc4F)c(Cl)cc23)C[C@H]1C [Compound 101, (E)-2-((2R,5S)-4-(6-chloro-2-(3-(dimethylamino)azetidin-1-yl)-8-fluoro-7-(2-fluoro-6-hydroxyphenyl)quinazolin-4-yl)-2,5-dimethyl-piperazine-1-carbonyl)-4-methylpent-2-enenitrile]
[1]
  Binding %: + (+ indicates binding activity greater than 0% and up to 50%)

## C=CC(=O)N1C[C@H](C)N(c2nc(OCCCN3CCC(F)(F)C3)nc3c(F)c(-c4c(C)ccc5[nH]ncc45)c(Cl)cc23)C[C@H]1C [Compound 231, 1-((2R,5S)-4-(6-chloro-2-(3-(3,3-difluoropyrrolidin-1-yl)propoxy)-8-fluoro-7-(5-methyl-1H-indazol-4-yl)quinazolin-4-yl)-2,5-dimethyl-piperazin-1-yl) prop-2-en-1-one]
[1]
  Binding %: ++ (++ indicates binding activity from 50 to 90%)

## C=CC(=O)N1C[C@@H](C)N(c2nc(N3CC(N(C)C)C3)nc3c(F)c(-c4c(O)cccc4F)c(Cl)cc23)[C@@H](C)C1 [Compound 21, 1-((3S,5R)-4-(6-chloro-2-(3-(dimethylamino)azetidin-1-yl)-8-fluoro-7-(2-fluoro-6-hydroxyphenyl)quinazolin-4-yl)-3,5-dimethyl-piperazin-1-yl) prop-2-en-1-one]
[2]
  Binding %: ++ (++ indicates binding activity from 50 to 90%)

## C=CC(=O)N1C[C@H](C)N(c2nc(OCCCN3CCC(F)(F)C3)nc3c(F)c(-c4cc(O)cc5ccccc45)c(Cl)cc23)C[C@H]1C [Compound 221, 1-((2R,5S)-4-(6-chloro-2-(3-(3,3-difluoropyrrolidin-1-yl)propoxy)-8-fluoro-7-(3-hydroxynaphthalen-1-yl)quinazolin-4-yl)-2,5-dimethyl-piperazin-1-yl) prop-2-en-1-one]
[1]
  Binding %: + (+ indicates binding activity greater than 0% and up to 50%)

## C=CC(=O)N1C[C@H](C)N(c2nc(N3CC(NC)C3)nc3c(F)c(-c4c(C)ccc5[nH]ncc45)c(Cl)cc23)C[C@H]1C [Compound 188, 1-((2R,5S)-4-(6-chloro-8-fluoro-7-(5-methyl-1H-indazol-4-yl)-2-(3-(methylamino)azetidin-1-yl)quinazolin-4-yl)-2,5-dimethyl-piperazin-1-yl) prop-2-en-1-one]
[1]
  Binding %: + (+ indicates binding activity greater than 0% and up to 50%)

## C=CC(=O)N1C[C@@H](C)N(c2nc(OCCN3CC(F)(F)C3)nc3c(F)c(-c4c(C)ccc5cn[nH]c45)c(Cl)cc23)[C@@H](C)C1 [Compound 47, 1-((3S,5R)-4-(6-chloro-2-(2-(3,3-difluoroazetidin-1-yl)ethoxy)-8-fluoro-7-(6-methyl-1H-indazol-7-yl)quinazolin-4-yl)-3,5-dimethyl-piperazin-1-yl) prop-2-en-1-one]
[2]
  Binding %: ++ (++ indicates binding activity from 50 to 90%)

## C=CC(=O)N1C[C@H](C)N(c2nc(N3CC(N(C)C)C3)nc3c(F)c(-c4ccccc4O)c(Cl)cc23)C[C@H]1C [Compound 135, 1-((2R,5S)-4-(6-chloro-2-(3-(dimethylamino)azetidin-1-yl)-8-fluoro-7-(2-hydroxyphenyl)quinazolin-4-yl)-2,5-dimethyl-piperazin-1-yl) prop-2-en-1-one]
[1]
  Binding %: ++ (++ indicates binding activity from 50 to 90%)

## C=CC(=O)N1C[C@H](C)N(c2nc(N3CC4(CCOCC4)C3)nc3c(F)c(-c4c(O)cccc4F)c(Cl)cc23)C[C@H]1C [Compound 159, 1-((2R,5S)-4-(6-chloro-8-fluoro-7-(2-fluoro-6-hydroxyphenyl)-2-(7-oxa-2-azaspiro[3.5]nonan-2-yl)quinazolin-4-yl)-2,5-dimethyl-piperazin-1-yl) prop-2-en-1-one]
[1]
  Binding %: ++ (++ indicates binding activity from 50 to 90%)

## C=CC(=O)N1C[C@H](C)N(c2nc(N3CC(N(C)C)C3)nc3c(F)c(-c4cc(O)cc5ccccc45)c(Cl)cc23)C[C@H]1C (atropisomer, axis not shown) [Compound 220, 1-((2R,5S)-4-(6-chloro-2-(3-(dimethylamino)azetidin-1-yl)-8-fluoro-7-((R)-3-hydroxynaphthalen-1-yl)quinazolin-4-yl)-2,5-dimethyl-piperazin-1-yl) prop-2-en-1-one]
[1]
  Binding %: + (+ indicates binding activity greater than 0% and up to 50%)

## C=CC(=O)N1C[C@H](C)N(c2nc(OCCN3CCC(F)(F)C3)nc3c(F)c(-c4c(C)ccc5cn[nH]c45)c(Cl)cc23)C[C@H]1C [Compound 202, 1-((2R,5S)-4-(6-chloro-2-(2-(3,3-difluoro-pyrrolidin-1-yl)ethoxy)-8-fluoro-7-(6-methyl-1H-indazol-7-yl)quinazolin-4-yl)-2,5-dimethyl-piperazin-1-yl) prop-2-en-1-one]
[1]
  Binding %: +++ (+++ indicates binding activity greater than 90%)

## C=CC(=O)N1C[C@H](C)N(c2nc(OCCN(CC)CC)nc3c(F)c(-c4c(C)ccc5cn[nH]c45)c(Cl)cc23)C[C@H]1C (atropisomer, axis not shown) [Compound 156, 1-((2R,5S)-4-(6-chloro-2-(2-(diethylamino)ethoxy)-8-fluoro-7-((R)-6-methyl-1H-indazol-7-yl)quinazolin-4-yl)-2,5-dimethyl-piperazin-1-yl) prop-2-en-1-one]
[1]
  Binding %: +++ (+++ indicates binding activity greater than 90%)

## C=CC(=O)N1[C@H](C)CN(c2nc(OCCN(CC)CC)nc3c(F)c(-c4c(O)cccc4F)c(Cl)cc23)C[C@@H]1C [Compound 29, 1-((2R,6S)-4-(6-chloro-2-(2-(diethylamino)ethoxy)-8-fluoro-7-(2-fluoro-6-hydroxyphenyl)quinazolin-4-yl)-2,6-dimethyl-piperazin-1-yl) prop-2-en-1-one]
[2]
  Binding %: ++ (++ indicates binding activity from 50 to 90%)

## C=CC(=O)N1C[C@H](C)N(c2nc(N3CC(N(C)C)C3)nc3c(F)c(-c4ccccc4C(F)(F)F)c(Cl)cc23)C[C@H]1C [Compound 168, 1-((2R,5S)-4-(6-chloro-2-(3-(dimethylamino)azetidin-1-yl)-8-fluoro-7-(2-(trifluoromethyl)phenyl)quinazolin-4-yl)-2,5-dimethyl-piperazin-1-yl) prop-2-en-1-one]
[1]
  Binding %: ++ (++ indicates binding activity from 50 to 90%)

## C=CC(=O)N1[C@H](C)CN(c2nc(N3CC(O)C3)nc3c(F)c(-c4c(O)cccc4F)c(Cl)cc23)C[C@@H]1C [Compound 35, 1-((2R,6S)-4-(6-chloro-8-fluoro-7-(2-fluoro-6-hydroxyphenyl)-2-(3-hydroxy-azetidin-1-yl)quinazolin-4-yl)-2,6-dimethyl-piperazin-1-yl) prop-2-en-1-one]
[2]
  Binding %: ++ (++ indicates binding activity from 50 to 90%)

## C=CC(=O)N1C[C@H](C)N(c2nc(N3CC4(CCCN(C5CC5)C4)C3)nc3c(F)c(-c4c(C)ccc5[nH]ncc45)c(Cl)cc23)C[C@H]1C [Compound 182, 1-((2R,5S)-4-(6-chloro-2-(6-cyclopropyl-2,6-diazaspiro[3.5]nonan-2-yl)-8-fluoro-7-(5-methyl-1H-indazol-4-yl)quinazolin-4-yl)-2,5-dimethyl-piperazin-1-yl) prop-2-en-1-one]
[1]
  Binding %: + (+ indicates binding activity greater than 0% and up to 50%)

## C=CC(=O)N1C[C@H](C)N(c2nc(Oc3ccnn3C)nc3c(F)c(-c4c(C)ccc5[nH]ncc45)c(Cl)cc23)C[C@H]1C [Compound 204, 1-((2R,5S)-4-(6-chloro-8-fluoro-7-(5-methyl-1H-indazol-4-yl)-2-((1-methyl-1H-pyrazol-5-yl)oxy)quinazolin-4-yl)-2,5-dimethyl-piperazin-1-yl) prop-2-en-1-one]
[1]
  Binding %: ++ (++ indicates binding activity from 50 to 90%)

## C=CC(=O)N1C[C@@H](C)N(c2nc(N3CC(N(C)C)C3)nc3c(F)c(-c4c(O)cccc4F)c(Cl)cc23)C[C@@H]1C [Compound 87, 1-((2S,5R)-4-(6-chloro-2-(3-(dimethylamino)azetidin-1-yl)-8-fluoro-7-(2-fluoro-6-hydroxyphenyl)quinazolin-4-yl)-2,5-dimethyl-piperazin-1-yl) prop-2-en-1-one]
[1]
  Binding %: + (+ indicates binding activity greater than 0% and up to 50%)
